The text below walks through data of patent US7041812B2, “Labeled nucleoside polyphosphates” (Amersham Biosciences Corp, priority 2001, dated 2006).

Assay [1] deals with T1, MMLV reverse transcriptase (Moloney murine leukemia virus, UniProt P03355).
T1 construct: MMLV reverse transcriptase
The assay can be described thus: Rates of incorporation of dTPn-DDAO (n=3 or 4) by reverse transcriptase. Particulars: 1 μM nucleotide, 100 nM primer annealed to template, shrimp alkaline phosphatase, 23° C., FIG. 2. In kind it is biochemical. As for the experimental part:
(§1) Reactions were assembled at room temperature (23° C.) using the deoxynucleotides of Example (1–5). Reactions contained primer template combinations having a single oligonucleotide primer (represented by SEQ ID NO: 1) annealed to an oligonucleotide template corresponding to SEQ ID NO: 2.
(§2) Reaction conditions: A 70 μl reaction containing 50 mM Tris, pH 8.0, 5% glycerol, 5 mM MgCl2, 0.01% tween-20, 0.25 units shrimp alkaline phosphatase, 100 nM primer annealed to template, and 1 μM ddTPn-DDAO was assembled in a quartz fluorescence ultra-microcuvet in a LS-55 Luminescence Spectrometer (Perkin Elmer), operated in time drive mode. Excitation and emission wavelengths are 620 nm and 655 nm respectively. Slit widths were […] for excitation slits, 15 nm for emission slits. The reaction was initiated by the addition of 0.35 μl (11 units) of a cloned DNA polymerase I (genetically engineered to eliminate 3′-5′ exonuclease activity, 5′-3′ exonuclease activity and discrimination against dideoxynucleotides) or MMLV reverse transcriptase, and 0.25 mM MnCl2.

Assay [2] has as its system cloned DNA polymerase I (genetically engineered to eliminate 3′-5′ exonuclease activity, 5′-3′ exonuclease activity and discrimination against …). The assay can be described thus: Rates of incorporation of dTPn-DDAO (n=3 or 4) by DNA polymerase. The settings on record: 1 μM nucleotide, 100 nM primer annealed to template, shrimp alkaline phosphatase, 23° C., FIG. 2. In kind it is biochemical. The protocol:
as §1, §2

For `Cc1cn([C@H]2CC(O)[C@@H](COP(=O)(O)OP(=O)(O)OP(=O)(O)OP(=O)(O)Oc3ccc4c(c3)C(C)(C)C3=C(Cl)C(=O)C(Cl)=CC3=N4)O2)c(=O)[nH]c1=O` (some centres unmarked) [dT4P-DDAO, δ-9H(1,3-dichloro-9,9-dimethylacridin-2-one-7-yl)-deoxythymidine-5′-tetraphosphate], the rate of incorporation entry in assay [1] and in assay [2] was “significantly higher than that of dT3P-DDAO” each time.
